Source: publication PMC6872757 (Heliyon, 2019)

Experiments:
Assay in all cases: TR-FRET nuclear receptor binding assay
PPARα = target: T1, PPARα (Homo sapiens, UniProt Q07869)
T1 sequence (Q07869 1-468): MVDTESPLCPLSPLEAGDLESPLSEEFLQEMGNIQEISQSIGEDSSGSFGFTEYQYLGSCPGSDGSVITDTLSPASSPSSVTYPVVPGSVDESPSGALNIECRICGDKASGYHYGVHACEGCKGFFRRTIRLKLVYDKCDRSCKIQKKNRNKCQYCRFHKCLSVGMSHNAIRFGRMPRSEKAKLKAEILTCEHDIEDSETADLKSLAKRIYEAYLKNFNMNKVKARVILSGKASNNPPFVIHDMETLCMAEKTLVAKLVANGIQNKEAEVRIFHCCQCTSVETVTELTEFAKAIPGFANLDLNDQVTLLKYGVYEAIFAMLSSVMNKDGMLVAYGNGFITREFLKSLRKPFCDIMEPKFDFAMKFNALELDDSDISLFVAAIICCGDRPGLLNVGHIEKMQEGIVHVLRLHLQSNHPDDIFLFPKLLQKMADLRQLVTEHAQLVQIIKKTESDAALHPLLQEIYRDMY

PPARδ(β) = target: T2, PPARδ(β) (Homo sapiens, UniProt Q03181)
T2 sequence (Q03181 1-441): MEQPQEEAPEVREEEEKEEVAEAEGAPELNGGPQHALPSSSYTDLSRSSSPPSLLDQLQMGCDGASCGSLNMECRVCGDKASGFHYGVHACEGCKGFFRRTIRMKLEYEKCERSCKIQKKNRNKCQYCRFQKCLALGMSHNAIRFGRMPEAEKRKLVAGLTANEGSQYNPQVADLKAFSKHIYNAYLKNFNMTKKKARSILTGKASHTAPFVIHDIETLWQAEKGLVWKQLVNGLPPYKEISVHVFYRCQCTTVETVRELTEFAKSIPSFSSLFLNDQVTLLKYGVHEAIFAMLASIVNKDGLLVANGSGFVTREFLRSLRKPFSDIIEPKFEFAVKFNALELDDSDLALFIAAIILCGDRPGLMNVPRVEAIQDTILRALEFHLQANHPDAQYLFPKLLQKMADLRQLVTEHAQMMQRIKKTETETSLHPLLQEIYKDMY

PPARγ = target: T3, PPARγ (Homo sapiens, UniProt P37231)
T3 sequence (P37231 1-505): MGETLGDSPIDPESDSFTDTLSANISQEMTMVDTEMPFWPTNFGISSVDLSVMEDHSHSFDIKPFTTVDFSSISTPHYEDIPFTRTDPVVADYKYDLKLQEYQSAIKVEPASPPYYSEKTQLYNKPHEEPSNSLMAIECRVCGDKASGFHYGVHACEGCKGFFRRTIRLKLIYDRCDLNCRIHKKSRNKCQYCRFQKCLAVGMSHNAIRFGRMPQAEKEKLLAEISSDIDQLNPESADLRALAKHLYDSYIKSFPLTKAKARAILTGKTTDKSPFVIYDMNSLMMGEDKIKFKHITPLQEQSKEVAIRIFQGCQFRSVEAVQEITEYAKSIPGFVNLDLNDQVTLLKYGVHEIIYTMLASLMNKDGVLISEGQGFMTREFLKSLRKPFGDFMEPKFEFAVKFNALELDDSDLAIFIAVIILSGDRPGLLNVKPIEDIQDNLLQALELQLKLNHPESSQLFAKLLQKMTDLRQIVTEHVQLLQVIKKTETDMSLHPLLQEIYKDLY

CC1=C(/C=C/C(C)=C\C=C\C(C)=C\C(=O)O)C(C)(C)CCC1 [9-cis RA]
No binding: EC50 nuclear receptor binding PPARα (PPARα) | EC50 nuclear receptor binding PPARδ(β) (PPARδ(β)) | EC50 nuclear receptor binding PPARγ (PPARγ)

CC1=C(/C=C/C(C)=C/C=C/C(C)=C/C(=O)O)C(C)(C)CCC1 [ATRA, all-trans retinoic acid]
No binding: EC50 nuclear receptor binding PPARα (PPARα) | EC50 nuclear receptor binding PPARδ(β) (PPARδ(β)) | EC50 nuclear receptor binding PPARγ (PPARγ)
